# Like-named read-outs stand apart in the source and are kept apart here.
# Assays:
# Format in all cases: cell-based
# S. pneumoniae strains = test: MIC against S. pneumoniae strains (Tables M7, M8); conditions: for MIC: Streptococcus pneumoniae
# Description: CLSI standard procedures for broth dilution MIC determination were used. […] These genotypes can be constitutive or inducible.
# S. aureus strains = test: MIC against S. aureus strains (Table M7); conditions: for MIC: Staphylococcus aureus
# Description: (§1) We have collected MIC data for a total of 50 novel macrolides that this platform has produced against over 21 unique strains of B. subtilis, E. coli, S. aureus, S. pneumoniae, and H. influenzae, including several multidrug-resistant strains, with a special focus on macrolide resistant mechanisms (vide supra). Azithromycin was included as a control macrolide. CLSI standard procedures for broth dilution MIC determination were used. […] These genotypes can be constitutive or inducible. The finding that C4-epi (unnatural) isomers of the “azaketolide” macrolide class have enhanced activities relative to C4 natural isomers is very exciting.
# H. influenzae strains = test: MIC against H. influenzae strains (Table M8); conditions: for MIC: Haemophilus influenzae
# Description: as §1
# E. coli strains = test: MIC against E. coli strains (Table M7); conditions: for MIC: Escherichia coli, ATCC25922, E. coli ATCC 25922
# Description: as §1
# A. baumannii strains = test: MIC against A. baumannii strains (Table M8); conditions: for MIC: Acinetobacter baumannii, BAA747, A. baumannii BAA747-1
# E. faecalis strains = test: MIC against E. faecalis strains (Table M8); conditions: for MIC: Enterococcus faecalis, E. faecalis 29212
# K. pneumoniae strains = test: MIC against K. pneumoniae strains (Table M8); conditions: for MIC: Klebsiella pneumoniae, K. pneumoniae 10031
# [1] = S. pneumoniae 160, read-out: MIC S. pneumonae (160)
# [2] = S. pneumoniae 1509, read-out: MIC S. pneumoniae (1509)
# [3] = S. pneumoniae 1533, read-out: MIC S. pneumoniae (1533)
# [4] = S. pneumoniae 1537, read-out: MIC S. pneumoniae (1537)
# [5] = ATCC29213, S. aureus ATCC 29213, read-out: MIC S. aureus (ATCC 29213)
# [6] = S. aureus 183, read-out: MIC S. aureus (183)
# [7] = S. aureus 506, read-out: MIC S. aureus (506)
# [8] = S. aureus 1708, read-out: MIC S. aureus (1708)
# [9] = USA300, S. aureus USA300, read-out: MIC S. aureus (USA300)
# [10] = H. influenzae 49247, read-out: MIC H. influenzae (49247)
# [11] = H. influenzae 49766, read-out: MIC H. influenzae (49766)
# [12] = S. pneumoniae 49619, read-out: MIC S. pneumoniae (49619)
Structure (SMILES),MIC (S. pneumoniae strains; [1]) [µg/mL],MIC (S. pneumoniae strains; [2]) [µg/mL],MIC (S. pneumoniae strains; [3]) [µg/mL],MIC (S. pneumoniae strains; [4]) [µg/mL],MIC (S. aureus strains; [5]) [µg/mL],MIC (S. aureus strains; [6]) [µg/mL],MIC (S. aureus strains; [7]) [µg/mL],MIC (S. aureus strains; [8]) [µg/mL],MIC (S. aureus strains; [9]) [µg/mL],MIC (H. influenzae strains; [10]) [µg/mL],MIC (H. influenzae strains; [11]) [µg/mL],MIC (E. coli strains) [µg/mL],MIC (A. baumannii strains) [µg/mL],MIC (E. faecalis strains) [µg/mL],MIC (K. pneumoniae strains) [µg/mL],MIC (S. pneumoniae strains; [12]) [µg/mL],also measured
"CC[C@H]1OC(=O)[C@H](C)C(=O)[C@H](C)[C@@H](O[C@@H]2OC(C)CC(N(C)C)C2O)[C@](C)(OC)CC(C)N[C@H](C)[C@H]2N(CCCCn3cc(-c4cccc(N)c4)nn3)C(=O)O[C@]12C (single isomer, unassigned) [FSM-30689]",16,16,> 32,> 32,> 32,> 32,> 32,> 32,> 32,16,> 32,> 32,> 32,32,> 32,–,MIC S. pneumoniae (49619) (S. pneumoniae strains; S. pneumoniae 49619): 8 µg/mL
CC[C@H]1OC(=O)[C@H](C)C(=O)[C@H](C)[C@@H](O[C@@H]2OC(C)CC(N(C)C)C2O)[C@](C)(OC)C[C@@H](C)CN(C)[C@H](C)[C@H]2N(CCCCn3cc(-c4cccc(N)c4)nn3)C(=O)O[C@]12C (stereo partly drawn) [FSM-21339],0.125,1,> 32,> 32,2,> 32,> 32,4,2,2,8,16,32,0.5,4,≤ 0.0625,–
CC[C@H]1OC(=O)[C@H](CC(=O)O)C(=O)[C@H](C)[C@@H](O[C@@H]2OC(C)CC(N(C)C)C2O)[C@](C)(OC)C[C@@H](C)CN[C@H](C)[C@H]2N(CCCCn3cc(-c4cccc(N)c4)nn3)C(=O)O[C@]12C (stereo partly drawn) [FSM-56185],> 32,> 32,> 32,> 32,> 32,> 32,> 32,> 32,> 32,> 32,> 32,> 32,> 32,> 32,> 32,> 32,–
CC[C@H]1OC(=O)[C@H](CC(=O)OC(C)(C)C)C(=O)[C@H](C)[C@@H](O[C@@H]2OC(C)CC(N(C)C)C2O)[C@](C)(OC)C[C@@H](C)CN[C@H](C)[C@H]2N(CCCCn3cc(-c4cccc(N)c4)nn3)C(=O)O[C@]12C (stereo partly drawn) [FSM-56178],8,> 32,> 32,> 32,> 32,> 32,> 32,> 32,> 32,> 32,> 32,> 32,> 32,> 32,> 32,> 32,–
CC[C@H]1OC(=O)[C@H](C)C(=O)[C@H](C)[C@@H](O[C@@H]2OC(C)CC(N(C)C)C2O)[C@](C)(OC)C[C@@H](C)CN[C@H](CCN(C)C)[C@H]2N(CCCCn3cc(-c4cccc(N)c4)nn3)C(=O)O[C@]12C (stereo partly drawn) [FSM-11052],0.5,0.5,> 32,> 32,8,> 32,> 32,4,32,8,32,> 32,> 32,2,16,0.125,–
CC[C@H]1OC(=O)[C@H](CC#N)C(=O)[C@H](C)[C@@H](O[C@@H]2OC(C)CC(N(C)C)C2O)[C@](C)(OC)C[C@@H](C)CN[C@H](C)[C@H]2N(CCCCn3cc(-c4cccc(N)c4)nn3)C(=O)O[C@]12C (stereo partly drawn) [FSM-56160],2,> 32,> 32,> 32,> 32,> 32,> 32,> 32,> 32,8,32,> 32,> 32,8,8,16,–
CCC1OC(=O)C(Cc2cn[nH]c2)C(=O)C(C)C(OC2OC(C)CC(N(C)C)C2O)C(C)(OCC=Cc2cnc3ccccc3c2)CC(C)CNC(C)C2NC(=O)OC12C (mixture of isomers) [FSM-21264],–,–,–,–,–,–,–,–,–,–,–,–,–,–,–,–,MIC S. pneumonae (160) (S. pneumoniae strains; S. pneumoniae 160): 4 µg/mL; MIC S. pneumoniae (1509) (S. pneumoniae strains; S. pneumoniae 1509): >32 µg/mL; MIC S. pneumoniae (1533) (S. pneumoniae strains; S. pneumoniae 1533): >32 µg/mL; MIC S. pneumoniae (1537) (S. pneumoniae strains; S. pneumoniae 1537): >32 µg/mL; MIC S. pneumoniae (49619) (S. pneumoniae strains; S. pneumoniae 49619): 2 µg/mL; MIC S. aureus (183) (S. aureus strains; S. aureus 183): >32 µg/mL; MIC S. aureus (506) (S. aureus strains; S. aureus 506): >32 µg/mL; MIC S. aureus (1708) (S. aureus strains; S. aureus 1708): >32 µg/mL; MIC S. aureus (ATCC 29213) (S. aureus strains; S. aureus ATCC 29213): >32 µg/mL; MIC S. aureus (USA300) (S. aureus strains; S. aureus USA300): >32 µg/mL; MIC H. influenzae (49247) (H. influenzae strains; H. influenzae 49247): 8 µg/mL; MIC H. influenzae (49766) (H. influenzae strains; H. influenzae 49766): >32 µg/mL; MIC E. coli (ATCC 25922) (E. coli strains; E. coli ATCC 25922): >32 µg/mL; MIC A. baumannii (BAA747-1) (A. baumannii strains; A. baumannii BAA747-1): >32 µg/mL; MIC E. faecalis (29212) (E. faecalis strains): >32 µg/mL; MIC K. pneumoniae (10031) (K. pneumoniae strains): >32 µg/mL
"CN(C)c1ccc(O)c2c1C[C@H]1C[C@H]3[C@H](N(C)C)C(O)=C(C(N)=O)C(=O)[C@@]3(O)C(O)=C1C2=O [Minocycline, minocycline, reference compound]",8,16,8,8,0.25,16,2,0.5,0.25,4,8,1,0.5,8,0.5,0.25,–
CC[C@H]1OC(=O)[C@H](C)C(=O)[C@H](C)[C@@H](O[C@@H]2OC(C)CC(N(C)C)C2O)[C@](C)(OC)CC(C)(F)CN[C@H](C)[C@H]2N(CCCCn3cc(-c4cccc(N)c4)nn3)C(=O)O[C@]12C (stereo partly drawn) [FSM-30686],0.5,4,> 32,> 32,8,> 32,> 32,4,8,2,8,32,> 32,0.5,8,0.25,–

# — patent publication US9982005B2, “Macrolides and methods of their preparation and use” (President and Fellows of Harvard College, priority 2013, dated 2018)
